Measurements taken from the NIST ThermoML archive (doi:10.1021/acs.jced.8b00521).

Experiment: xn = mol fraction of the nth substance listed
Settings: Liquid; for viscosity: Capillary tube (Ostwald / Ubbelohde) method; for mass density: Vibrating tube method

CCCCCCCC(=O)OCC [ethyl octanoate] + CCCCCCCCCCCC(=O)OC
Settings | mass density [kg/m3] | viscosity [mPa·s]
313.15 K, 8900 kPa, x2 = 0.1 | 855 | 1.33
313.15 K, 8900 kPa, x2 = 0.1999 | 855 | 1.42
313.15 K, 8960 kPa, x2 = 0.6999 | 858 | 1.93
313.15 K, 9000 kPa, x2 = 0.6001 | 857 | 1.81
313.15 K, 9010 kPa, x2 = 0.4 | 856 | 1.59
313.15 K, 9010 kPa, x2 = 0.9 | 859 | 2.15
313.15 K, 9030 kPa, x2 = 0.3001 | 855 | 1.52
313.15 K, 9030 kPa, x2 = 0.8001 | 858 | 2.06
313.15 K, 9050 kPa, x2 = 0.4999 | 857 | 1.7
313.15 K, 11910 kPa, x2 = 0.6001 | 859 | 1.87
313.15 K, 11950 kPa, x2 = 0.4 | 858 | 1.63
313.15 K, 11980 kPa, x2 = 0.3001 | 857 | 1.57
313.15 K, 12010 kPa, x2 = 0.1 | 856 | 1.37
313.15 K, 12010 kPa, x2 = 0.1999 | 856 | 1.47
313.15 K, 12010 kPa, x2 = 0.8001 | 860 | 2.11
313.15 K, 12020 kPa, x2 = 0.4999 | 858 | 1.74
313.15 K, 12070 kPa, x2 = 0.9 | 860 | 2.22
313.15 K, 12090 kPa, x2 = 0.6999 | 860 | 1.99
313.15 K, 14970 kPa, x2 = 0.8001 | 862 | 2.16
313.15 K, 14980 kPa, x2 = 0.6999 | 861 | 2.03
313.15 K, 15010 kPa, x2 = 0.6001 | 861 | 1.92
313.15 K, 15020 kPa, x2 = 0.3001 | 859 | 1.62
313.15 K, 15040 kPa, x2 = 0.4999 | 860 | 1.79
313.15 K, 15050 kPa, x2 = 0.1 | 858 | 1.41
313.15 K, 15050 kPa, x2 = 0.1999 | 858 | 1.51
313.15 K, 15050 kPa, x2 = 0.9 | 862 | 2.28
313.15 K, 15090 kPa, x2 = 0.4 | 859 | 1.69
323.15 K, 100 kPa, x2 = 0.1 | 841 | 1.03
323.15 K, 100 kPa, x2 = 0.1999 | 842 | 1.09
323.15 K, 100 kPa, x2 = 0.3001 | 842 | 1.13
323.15 K, 100 kPa, x2 = 0.4 | 843 | 1.19
323.15 K, 100 kPa, x2 = 0.4999 | 843 | 1.26
323.15 K, 100 kPa, x2 = 0.6001 | 843 | 1.33
323.15 K, 100 kPa, x2 = 0.6999 | 844 | 1.42
323.15 K, 100 kPa, x2 = 0.8001 | 844 | 1.51
323.15 K, 100 kPa, x2 = 0.9 | 844 | 1.61
323.15 K, 2930 kPa, x2 = 0.1 | 843 | 1.04
323.15 K, 2930 kPa, x2 = 0.1999 | 843 | 1.11
323.15 K, 2940 kPa, x2 = 0.3001 | 844 | 1.18
323.15 K, 2960 kPa, x2 = 0.6999 | 845 | 1.45
323.15 K, 2980 kPa, x2 = 0.6001 | – | 1.38
